Measurements: patent publication US20200370033A1, “BIOLOGICAL ASSEMBLY INCLUDING BIOLOGICAL COMPONENT AND SHIELD” (Regents of the University of Minnesota, priority 2018, published 2020)

Columns and labels:
[1] = Detergent and micelle properties; type: physicochemical; settings: for Est. Micelle MW: estimated micelle molecular weight
[2] = detergent micelle; cited from earlier work
[3] = test system: E. coli DH5α expressing homoprotocatechuate 2,3-dioxygenase (2,3-HPCD); type: cell-based; settings: 1% w/v for 20 minutes
Experimental: A 200 μL aliquot of 500 μM DHPAC in 50 mM PB at pH 7.5 was added to each well and A380 was measured for up to one hour. The data was then fit to a first order reaction model of the form:
Cp(t)=Cs,0(1−e^−k^r^t) (4)
Cp is the product concentration, Cs,0 is the initial substrate concentration, and kr is the first order reaction rate constant.

| Substance | micelle hydrodynamic radii [1] [nm] | Est. Micelle MW [1] [kDa] | Aggregation Number [2] | change in biocatalytic activity after detergent/surfactant treatment [3] |
| --- | --- | --- | --- | --- |
| polyethylene glycol p-(1,1,3,3-tetramethylbutyl)-phenyl ether [Triton X-100] | ~4 | 228 | 140 | modest |
| polysorbate 85 [Tween 85] | – | 110 | 60 | modest |
